Measured values as given in patent US20230122911A1, “FORMULATIONS OF ENZALUTAMIDE” (Astellas Pharma Inc., priority 2012, published 2023).

Legend:
Format in all cases: physicochemical
[1] = Microcentrifuge dissolution test in Model Fasted Duodenal Solution; settings: for Enzalutamide Concentration / AUC90 (area under the curve at 90 minutes) / Cmax,90 (maximum drug concentration through 90 minutes): MFDS pH 6.5, dose 200 µg/ml; for AUC90 (area under the curve at 90 minutes) / Cmax,90 (maximum drug concentration through 90 minutes): Table 4.2; for Average enzalutamide concentration: Table 9.1
Description: The in vitro dissolution test to evaluate enhanced drug concentration in aqueous solution can be conducted by (1) adding with agitation a sufficient quantity of control composition, that is, the crystalline enzalutamide alone, to the in vitro test medium, typically MFD or PBS solution, to determine the maximum concentration of the enzalutamide achieved under the conditions of the test: (2) adding with agitation a sufficient quantity of test composition (e.g., the enzalutamide and polymer) in an equivalent test medium, such that if all the enzalutamide dissolved, the theoretical concentration of enzalutamide would exceed the observed maximum concentration of enzalutamide by a factor of about 20; and (3) comparing the measured MDC and/or aqueous concentration versus time AUC90 of the test composition in the test medium with the maximum concentration, and/or the aqueous concentration versus time AUC90 of the control composition. In conducting such a dissolution test, the amount of test composition or control composition used is an amount such that if all of the enzalutamide dissolved, the test enzalutamide concentration would be at least about 20-fold that of the control enzalutamide concentration.
The concentration of dissolved enzalutamide is typically measured as a function of time by sampling the test medium and plotting enzalutamide concentration in the test medium vs. time so that the MDC can be ascertained. The MDC is taken to be the maximum value of dissolved enzalutamide measured over the duration of the test. The enzalutamide concentration versus time AUC90 is calculated by integrating the concentration versus time curve over any 90-minute time period between the time of introduction of the composition into the aqueous use environment (time equals zero) and 270 minutes following introduction to the use environment (time equals 270 minutes). Typically, when the composition reaches its MDC rapidly, in less than about 30 minutes, the time interval used to calculate AUC90 is from time equals zero to time equals 90 minutes. However, if the AUC90 over any 90-minute time period described above of a composition meets the criteria of compositions described herein, then the composition is included in compositions of this disclosure. The time period 270 min is chosen because of its physiological relevance. Drug absorption in mammals generally occurs in the small intestine, and the small intestinal transit time in humans is approximately 4.5 hr, or 270 min.
To avoid large enzalutamide particulates which would give an erroneous determination, the test solution is either filtered or centrifuged. “Dissolved enzalutamide” is typically taken as that material that either passes a 0.45 micron syringe filter or, alternatively, the material that remains in the supernatant following centrifugation. Filtration can be conducted using a 13 mm, 0.45 micron polyvinylidine difluoride syringe filter, such as the filter sold by Scientific Resources under the trademark TITAN™. Centrifugation is typically carried out in a polypropylene microcentrifuge tube by centrifuging at 13.000 G for 60 seconds. Other similar filtration or centrifugation methods can be employed and useful results obtained. For example, using other types of microfilters may yield values somewhat higher or lower (+/- 10-40%) than that obtained with the filter specified above but will still allow identification of dispersions. It is recognized that this definition of “dissolved enzalutamide” encompasses not only monomeric solvated enzalutamide molecules but also a wide range of species such as polymer/enzalutamide assemblies that have submicron dimensions such as enzalutamide aggregates, aggregates of mixtures of polymer and enzalutamide, micelles, polymeric micelles, colloidal particles, polymer/enzalutamide complexes, and other such enzalutamide-containing species that are present in the filtrate or supernatant in the specified dissolution test. […]

[2] = Crystallinity by PXRD (and DSC); settings: after spray-drying
[3] = Glass transition temperature (Tg) by modulated DSC
Protocol: Below Tg, an amorphous material is said to be in a “glassy” state in which molecular mobility is severely restricted. […] Glass transition temperatures Tg were determined for amorphous enzalutamide, and for spray-dried dispersions (SDDs) of enzalutamide with HPMCAS-M or PVP-VA64, at <5% and 75% relative humidity (RH) Tgs were determined by modulated differential scanning calorimetry (mDSC), utilizing the following protocol. Samples (about 5 mg) were equilibrated at the desired RH overnight in an environmental chamber at ambient temperature. The samples were then loaded into pans and sealed inside the environmental chamber. The samples were analyzed on a Q1000 mDSC (TA Instruments, New Castle, Delaware). Samples were typically scanned over the temperature range of -40° C. to 180° C., at a scan rate of 2.5° C./min, and a modulation rate of ±1.5° C./min. […] The Tg was calculated based on half height.
HME dispersions were produced using dry-powder blends of enzalutamide and HPMCAS-M or PVP VA at three different drug loadings: 25%A, 40%A, and 60%A. Using a volumetric powder feeder, the blends were fed at a controlled rate to a 7.5 \-mm MP&R™ Model ME7.5 Twin-Screw Extruder (MP&R, Hackensack, NJ). […] Table 11.1 presents the extrusion temperature, the crystallinity of the dispersion (amorphous is desired), and the glass transition temperature (Tg) measured by DSC.

[4] = Microcentrifuge dissolution before and after suspension for 2 hr in aqueous 0.5% methylcellulose
Protocol: Drugs and drug formulations are sometimes dosed as aqueous suspensions, particularly for pediatric patients. The ability of various enzalutamide SDDs to retain their ability to maintain drug supersaturation in vitro was assessed by using the microcentrifuge dissolution test to measure drug dissolution after suspension in 0.5% methylcellulose in water for 2 hours. Methylcellulose is a standard viscosifying suspending agent which is used to maintain drug particles in suspension in oral suspension dosage forms. The table below presents in vitro dissolution performance before and after suspension in 0.5% methylcellulose.

[5] = 0 hr, before suspension in 0.5% methylcellulose
[6] = after suspension for 2 hr in aqueous 0.5% methylcellulose
[7] = listed as Amorphous (spray-dried) enzalutamide

CNC(=O)c1ccc(N2C(=S)N(c3ccc(C#N)c(C(F)(F)F)c3)C(=O)C2(C)C)cc1F [Control 1, 4-{3-[4-cyano-3-(trifluoromethyl)phenyl]-5,5-dimethyl-4-oxo-2-sulfanylideneimidazolidin-1-yl}-2-fluoro-N-methylbenzamide]
Enzalutamide Concentration ([1]; 4 min): 1 µg/mL
Enzalutamide Concentration ([1]; 10 min): 3 µg/mL
Enzalutamide Concentration ([1]; 20 min): 5 µg/mL
Enzalutamide Concentration ([1]; 40 min): 6 µg/mL
Enzalutamide Concentration ([1]; 90 min): 7 µg/mL
Enzalutamide Concentration ([1]; 1200 min): 9 µg/mL
AUC90 (area under the curve at 90 minutes) [1]: 500 µg·min/mL
Cmax,90 (maximum drug concentration through 90 minutes) [1]: 7 µg/mL
Average enzalutamide concentration ([1]; 0 min): 0.32 µg/mL
Average enzalutamide concentration ([1]; 4 min): 5.23 µg/mL
Average enzalutamide concentration ([1]; 10 min): 8.04 µg/mL
Average enzalutamide concentration ([1]; 20 min): 7.69 µg/mL
Average enzalutamide concentration ([1]; 40 min): 8.65 µg/mL
Average enzalutamide concentration ([1]; 90 min): 9.14 µg/mL
Average enzalutamide concentration ([1]; 1200 min): 12.12 µg/mL
AUC90 min ([1]; Table 9.2): 740 µg·min/mL
Cmax,90 min ([1]; Table 9.2): 10 µg/mL

CNC(=O)c1ccc(N2C(=S)N(c3ccc(C#N)c(C(F)(F)F)c3)C(=O)C2(C)C)cc1F [Amorphous enzalutamide, 4-{3-[4-cyano-3-(trifluoromethyl)phenyl]-5,5-dimethyl-4-oxo-2-sulfanylideneimidazolidin-1-yl}-2-fluoro-N-methylbenzamide]
crystallinity by PXRD [2]: completely amorphous
Tg ([3]; 75% RH): 64.0 °C
Tg ([3]; <5% RH): 88.5 °C
AUC90 [4, 5]: 8,900 min·mcg/ml
Cmax 90 [4, 5]: 110 µg/mL
AUC90 [4, 6]: 8,800 min·mcg/ml
AUC90% of 0 Hr Value [4, 6]: 99%
Cmax 90 [4, 6]: 100 µg/mL
Enzalutamide Concentration ([1]; 0 min): 0.0 µg/mL
Enzalutamide Concentration ([1]; 4 min, listed as Amorphous (spray-dried) enzalutamide): 61 µg/mL
Enzalutamide Concentration ([1]; 10 min, listed as Amorphous (spray-dried) enzalutamide): 100 µg/mL
Enzalutamide Concentration ([1]; 20 min, listed as Amorphous (spray-dried) enzalutamide): 100 µg/mL
Enzalutamide Concentration ([1]; 40 min, listed as Amorphous (spray-dried) enzalutamide): 110 µg/mL
Enzalutamide Concentration ([1]; 90 min, listed as Amorphous (spray-dried) enzalutamide): 120 µg/mL
Enzalutamide Concentration ([1]; 1200 min, listed as Amorphous (spray-dried) enzalutamide): 30 µg/mL
AUC90 (area under the curve at 90 minutes) [1, 7]: 9,500 min*µg/mL
Cmax,90 (maximum drug concentration through 90 minutes) [1, 7]: 120 µg/mL
